Experimental data from patent publication US6521630B1, “Tetrahydroquinazoline-2,4-diones and therapeutic uses thereof” (Pfizer Inc., priority 1999, dated 2003).
Where a name gives a salt, the structure may show the parent alone.

melting point [°C]	Structure (SMILES)
165 to 170	Cc1ccc(C2=CCN(CCCn3c(=O)[nH]c4cccc(C)c4c3=O)CC2)cc1 (as salt: maleate)
190 to 194	O=c1[nH]c2cccc(Cl)c2c(=O)n1CCCN1CC=C(c2ccc(Cl)cc2)CC1 (as salt: maleate)
215 to 217	Cc1cccc2c(=O)n(CCCN3CC=C(c4ccc(Cl)cc4)CC3)c(=O)[nH]c12 (as salt: maleate)
197 to 198	O=c1[nH]c2cc(F)ccc2c(=O)n1CCCN1CC=C(c2ccc(Cl)cc2)CC1 (as salt: maleate)
199 to 201	Cc1ccc2c(=O)n(CCCN3CC=C(c4ccc(Cl)cc4)CC3)c(=O)[nH]c2c1 (as salt: maleate)
212 to 220	Cc1ccc(C)c2c(=O)n(CCCN3CC=C(c4ccc(Cl)cc4)CC3)c(=O)[nH]c12 (as salt: maleate)
158 to 160	Cc1cccc2[nH]c(=O)n(CCCN3CC=C(c4cccc(C(F)(F)F)c4)CC3)c(=O)c12 (as salt: maleate)
225 to 227	O=c1[nH]c2cc(Cl)ccc2c(=O)n1CCCN1CC=C(c2ccc(Cl)cc2)CC1 (as salt: maleate)
175 to 178	Cc1cccc2[nH]c(=O)n(CCCN3CC=C(c4ccc(Cl)cc4)CC3)c(=O)c12 (as salt: maleate)

Second part, the compound before the results:

Structure (SMILES)	melting point [°C]
O=c1[nH]c2c(O)cccc2c(=O)n1CCCN1CC=C(c2ccc(Cl)cc2)CC1 (as salt: hydrobromid)	284 to 286
O=c1[nH]c2c(Cl)cccc2c(=O)n1CCCN1CC=C(c2cccc(C(F)(F)F)c2)CC1 (as salt: maleate)	205 to 210
O=c1[nH]c2cc([N+](=O)[O-])ccc2c(=O)n1CCCN1CC=C(c2ccc(Cl)cc2)CC1 (as salt: maleate)	210 to 212
O=c1[nH]c2ccc(Cl)cc2c(=O)n1CCCN1CC=C(c2ccc(Cl)cc2)CC1 (as salt: maleate)	197 to 198
O=c1[nH]c2ccc([N+](=O)[O-])cc2c(=O)n1CCCN1CC=C(c2ccc(Cl)cc2)CC1 (as salt: maleate)	205 to 207
O=c1[nH]c2c(Cl)cc(Cl)cc2c(=O)n1CCCN1CC=C(c2ccc(Cl)cc2)CC1 (as salt: maleate)	197 to 199
Cc1c(Cl)ccc2c(=O)n(CCCN3CC=C(c4ccc(Cl)cc4)CC3)c(=O)[nH]c12 (as salt: maleate)	208 to 210
Cc1cc(Br)c2[nH]c(=O)n(CCCN3CC=C(c4ccc(Cl)cc4)CC3)c(=O)c2c1 (as salt: maleate)	212 to 214
